Measured values published in publication PMC9571290, “Preliminary Structure–Activity Relationship Study of the MMV Pathogen Box Compound MMV675968 (2,4-Diaminoquinazoline) Unveils Novel Inhibitors of Trypanosoma brucei brucei” (Molecules, 2022).
Like-named read-outs stand apart in the source and are kept apart here.

Columns and labels:
[1] = system: bloodstream form of Trypanosoma brucei brucei; test: parasite-killing kinetics and cidal or static effect; type: cell-based; settings: for cidal or static effect after inhibitor removal: IC90 and IC99, removal at 4 h (10) or 24 h (7), subculture in inhibitor-free medium; for time to total inhibition of trypanosome growth: at IC99
Experimental: Thus, they were selected, and their effect at various concentrations was assessed on the proliferation rate of the bloodstream form of Trypanosoma brucei brucei using microscopic cell count. […] After specified exposure time intervals (0, 4, 8, 12, 24, 30, 36, 48, 60, 72 h), the content of each well was harvested and counted on a Neubauer hemacytometer to determine the number of mobile parasites. The obtained values were used to plot the growth curves as parasite density (cells/mL) versus incubation time using GraphPad Prism 8.0 software.
Therefore, the ability of parasites to recover post exposure to inhibitors 10 and 7 was further evaluated. […] After that, the cells were washed three times with fresh complete medium by centrifugation at 2500 rpm for 7 min. Cell pellets were thereafter resuspended in fresh complete culture medium in a 24-well plate and subcultured under the same conditions for 68 h for compound 10 and 48 h for compound 7 to achieve the complete parasite growth pattern. Thereafter, cells were enumerated using the Neubauer cell counter at each time point. The assay was performed in duplicate, and the mean cell counts were plotted […] against time using GraphPad Prism 8.0 to assess the cidal or static effect of inhibitors.

[2] = ferric ion reducing antioxidant power (FRAP); settings: Fe^3+-reducing activity
Experimental: Iron is one of the vital elements for all parasites, including trypanosomes, as it plays a key role in pathogenesis and the host immune response. Therefore, iron bioavailability reducing agents to the parasite could be potential candidates for drug development against trypanosomiasis. To this end, we determined the capacity of the test compounds to reduce iron from ferric to ferrous status using the method described by Benzie et al.. Briefly, 25 µL of each compound (7 and 10) was added to 25 µL of a solution of Fe^3+ prepared at 1.2 mg/mL in distilled water in a 96-well microplate. The plate was incubated for 15 min at room temperature in darkness, after which 50 µL of ortho-phenanthroline (0.2% in methanol) was added to achieve final compound concentrations ranging from 400 µM to 0.19 µM. Plates were reincubated for 15 min, and the absorbance was measured at 510 nm. Ascorbic acid was used as a positive control and tested at concentrations ranging from 100 to 0.048 μg/mL. The median reducing concentration (RC50) values of compounds were determined through sigmoidal concentration–response curves using GraphPad Prism version 8.0 software.

trypanosomes = test: intracellular ROS production (DCFDA); type: cell-based, Trypanosoma brucei brucei; settings: 120 min; versus untreated parasites
Experimental: The production of ROS was detected using a 2′,7′–dichlorofluorescein diacetate (DCFDA) probe (Sigma–Aldrich) as described by Rea et al.. […] DCFDA (100 µL, 5 µM) was then added to the parasites, and incubation was pursued for 15 min at 37 °C. Hydrogen peroxide (H2O2 0.1% v/v) was used as a positive control for maximal ROS production, and wells with untreated parasites were included as a negative control. Of note, DCFDA is cleaved by ROS to produce fluorescent 2′,7′-dichlorofluorescein (DCF), of which the fluorescence intensity was measured at λex = 485 nm and λem = 520 nm. Data obtained from duplicate readouts were used to determine the ROS production percentage relative to the positive control (100% Production). % ROS production = (OD Test/OD control(H2O2)) × 100

[3] = system: bloodstream forms of Trypanosoma brucei brucei; test: cellular DNA fragmentation ELISA (apoptosis or cytolysis); type: cell-based; settings: 4 h; for apoptotic DNA fragmentation: lysate, at IC50
Experimental: Basically, this assay tends to quantify apoptotic cell death by detection of […] dye-labeled DNA fragments in the cytoplasm of affected cells or to measure cell-mediated cytotoxicity by detection of dye-labeled DNA fragments released from damaged cells into the culture supernatant. […] BrdU-labeled parasites were harvested (by spinning at 2500 rpm for 7 min) followed by centrifugal washing using BrdU-free HMI-9 medium. […] The plate was then centrifuged at […] for 7 min, and the pellets were collected and kept at 4 °C until further use. For cytolysis measurement, the supernatants were added to a microplate coated with anti-DNA antibody to allow DNA capture from the test samples. The captured DNA fragments were subsequently denatured using microwave irradiation (LG NeoChef Charcoal Healthy Ovens) at 500 W for 5 min to separate DNA strands in view of displaying the BrdU. Thereafter, an anti-BrdU-antibody-POD (peroxidase) conjugate was added to detect the BrdU contained in the captured DNA fragments.
For apoptosis measurement, the cell pellets from each well were resuspended in 200 µL of the kit’s incubation buffer and incubated for 30 min. The lysed cells were centrifuged at […] for 10 min, and the supernatants were used as described above. Triton X-100 (Sigma Aldrich) was used as a positive control for both apoptosis and cell-mediated cytotoxicity. The absorbance values were proportionally correlated to the amount of DNA fragments in the treated cultures. Data are expressed as the mean ± SD of two independent experiments performed in duplicate and compared to the negative control (untreated parasites) at a significance level of p < 0.05.

[4] = system: bloodstream forms of Trypanosoma brucei brucei; test: resazurin-based antitrypanosomal inhibition assay; type: cell-based; settings: Trypanosoma brucei
[5] = Table 4, analogs of MMV675968, solid material, read-out: IC50 ± SD T. b. b.
[6] = Table 4, negative log of IC50 in molar, read-out: pIC50 T. b. b. (converted)

Structure (SMILES) | cidal or static effect after inhibitor removal [1] | time to total inhibition of trypanosome growth [1] | median reducing concentration (RC50) [2] | change in ROS production (trypanosomes) | induction of cell lysis (cytolysis) ([3]; culture supernatant) | apoptotic DNA fragmentation [3] | IC50 [4, 5] | IC50 [4, 6]
COc1ccccc1NCc1ccc2nc(N)nc(N)c2c1 [Analog 7, 6-(((2-methoxyphenyl)amino)methyl)quinazoline-2,4-diamine] | static effect | ≤ 24 h | 96.37 µM | no significant change | did not exert any effect | did not exert any effect | 60 ± 8 nM | 60.3 nM
Nc1nc(N)c2cc(CNc3cc(Cl)ccc3Cl)ccc2n1 [Analog 10, 6-(((2,5-dichlorophenyl)amino)methyl)quinazoline-2,4-diamine] | cidal effect | ≤ 4 h | > 400 µM | no significant change |  | significant inducing effect | 45 ± 5 nM | 45.7 nM
